This note sets out measurements from publication PMC11343403, “A novel TREX1 inhibitor, VB-85680, upregulates cellular interferon responses” (PLOS ONE, 2024).

In assay [1] the target is T1, TREX1 (Three-prime Repair EXonuclease 1), mouse (Mus musculus, UniProt Q91XB0).
T1 construct: full-length mouse TREX1 (wild-type), overexpressed in HEK293T
T1 sequence (Q91XB0 1-314): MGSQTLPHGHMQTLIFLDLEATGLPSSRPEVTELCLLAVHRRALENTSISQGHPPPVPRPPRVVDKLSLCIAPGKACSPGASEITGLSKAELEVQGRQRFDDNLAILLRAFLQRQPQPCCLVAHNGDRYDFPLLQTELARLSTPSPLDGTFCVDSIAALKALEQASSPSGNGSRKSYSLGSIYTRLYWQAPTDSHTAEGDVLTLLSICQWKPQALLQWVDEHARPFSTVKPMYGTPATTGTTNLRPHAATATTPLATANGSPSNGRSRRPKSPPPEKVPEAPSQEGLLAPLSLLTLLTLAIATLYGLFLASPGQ
The assay can be described thus: fluorescence exonuclease assay (FAM-12mer-BHQ1) in HEK293T overexpression lysate, with D18N and empty-vector controls. Type of assay: biochemical.

The target in assay [2] is T2, TREX1 (Three-prime Repair EXonuclease 1), human (Homo sapiens, UniProt Q9NSU2).
T2 construct: endogenous human TREX1 in THP1-Dual cell lysate
T2 sequence (Q9NSU2 1-314): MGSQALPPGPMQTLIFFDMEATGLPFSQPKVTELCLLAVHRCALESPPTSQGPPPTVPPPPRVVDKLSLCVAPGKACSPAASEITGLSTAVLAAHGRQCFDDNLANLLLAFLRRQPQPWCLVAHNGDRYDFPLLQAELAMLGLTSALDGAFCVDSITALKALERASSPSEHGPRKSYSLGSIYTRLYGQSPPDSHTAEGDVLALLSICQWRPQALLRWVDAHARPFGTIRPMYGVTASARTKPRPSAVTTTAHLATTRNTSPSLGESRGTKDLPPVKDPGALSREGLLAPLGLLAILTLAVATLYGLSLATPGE
The experiment in a line: BioVision […]' to […]' exonuclease activity assay in THP1-Dual lysate, with TREX1 knockout lysate control. It counts as biochemical.

A word on the IC50: it is the concentration at which inhibition is half-maximal. Low readings indicate greater potency in that assay, high ones weaker potency in that assay. On to VB-85680, for which the half-inhibitory concentration (IC50) in assay [1] was determined as 0.0031 µM; in assay [2], 0.0488 µM.
